The conditions of series [1]: capsaicin as reference; cited from earlier work.
Series [2] can be described thus: Tasting of the substance in 11% sugar solution by a group of testers (sensory profile). To be noted: for sensory profile (tasting): approx. 5 ml swallowed, 6 to 8 testers; for flavour impression in sensory testing: concentration not given. Type of series: in vivo. On the procedure: The substance to be tasted is dissolved in ethanol and the ethanolic solution then diluted with an 11% sugar solution (final concentration: c). Approx. 5 ml of the sugar solution at a time are swallowed for the tasting. If the threshold value of the substance is known, a value just above the threshold value is chosen for the tasting. A group of 6 to 8 testers tasted the solutions.

The test system of a further series is mouse. To be noted: cited from earlier work.
For series [3] the following is noted: frequent use and overdosing; cited from earlier work.

The text below walks through data of patent US7482479B2, “Production of cis-pellitorin and use as a flavouring” (Symrise GmbH & Co., KG, priority 2002, dated 2009).

As to `O=C(/C=C/C=C/c1ccc2c(c1)OCO2)N1CCCCC1` [piperine, 1-piperoyl piperidine], the “relative pungency in comparison to capsaicin” value in series [1] is “approx. 1%”.
As for `CCCCC/C=C/C=C/C(=O)NCC(C)C` [trans-pellitorine, 2E,4E-decadienoic acid-N-isobutylamide], the “sensory profile (tasting)” value in series [2] (c=10 ppm in 11% sugar solution) was “saliva-stimulating, oily, fruity, slightly tingling, not pungent”. Moreover, the “flavour impression in sensory testing” value in series [2] is given as “primarily numbing”.
Consider `CCCCC/C=C\C=C\C(=O)NCC(C)C` [cis-pellitorine, 2E,4Z-decadienoic acid-N-isobutylamide], for which, in series [2] (c=10 ppm in 11% sugar solution), the “sensory profile (tasting)” value is reported as “pronounced feeling of warmth, immediately pungent, typical alcohol pungency”. The “flavour impression in sensory testing” value in series [2] was “pleasant, extremely pungent and warm flavour impression, which is reminiscent of ethanol and is relatively long lasting”.
Consider `COc1cc(CNC(=O)CCCCCCC(C)C)ccc1O` [dihydrocapsaicin], for which the “sensory profile (tasting)” value in series [2] (c=100 ppb in 11% sugar solution) is reported as “slightly delayed onset of effect in the pharynx, burning, aggressive, no heat development”.
For `COc1cc(CNC(=O)CCCC/C=C/C(C)C)ccc1O` [capsaicin, N-(4-hydroxy-3-methoxybenzyl)-8-methyl-(6E)-nonenoic acid amide], the “LD50 (mouse oral)” value with mouse is listed as 47 mg. Also, the chronic toxicity entry in series [3] was “chronic gastritis, kidney and liver damage”.
